Experimental data reported in patent publication US20120295920A1, “5-AMINO-4-HYDROXYPENTOYL AMIDES” (priority 2009, published 2012).
Where two headings read alike, the source gives them in different places.

What was measured:
[1] = tested on: HIV-1 Strain B (M046I, I050V); assay: microbe, parasite or virus in culture; assay type: cell-based; details: clinical isolate Strain B; read-out: B EC50
Method: (§1) MT4-LTR-EGFP cells were obtained by transfecting MT4 cells with a selectable construct encompassing the sequences coding for the HIV long terminal repeat (LTR) as a promoter for the expression of enhanced green fluorescent protein (EGFP) and subsequent selection of permanently transfected cells.
(§2) The antiviral activity on different HIV-1 strains, was determined in a cell-based virus replication assay. Here MT4-LTR-EGFP cells (150,000 cells/ml) are infected (multiplicity of infection [MOI] of 0.0025) in the presence or absence of different inhibitor concentrations. Two methodologies for read-out were used, either quantification of GFP-fluoresence on day 3 post-infection, or quantification of cell-viability using rezazurin (as described by Fields, R. D., and M. V. Lancaster (1993) Am. Biotechnol. Lab. 11:48-50) on day 4 post infection.
(§3) In the following Table, Strains A, B, and C are clinical isolates that include the following protease inhibitor resistance mutations in the protease domain (background mutations are not mentioned).

[2] = tested on: HIV-1 Strain C (G048G/V, V082A); assay: microbe, parasite or virus in culture; assay type: cell-based; details: clinical isolate Strain C; read-out: C EC50
Method: as §1, §2, §3

[3] = tested on: HIV-1 Strain A (M046I, I084V); assay: microbe, parasite or virus in culture; assay type: cell-based; details: clinical isolate Strain A; read-out: A EC50
Method: as §1, §2, §3

HIV-1 IIIB = assay: 50% HS-Rezazurin: antiviral assay in the presence of 50% human serum, MT-4 cells, resazurin cell viability; assay type: cell-based
Method: For the Antiviral assay in the presence of 50% human serum MT-4 cells were infected with HIV-1 IIIB at a MOI of 0.001 to 0.01 CCID50/cell in RPMI1640 medium. Following 1 h of incubation, cells were washed and plated into a 96-well plate containing serial dilutions of compound in the presence of 10% fetal calf serum (FCS), or 50% human serum. After 4 days incubation, the EC50 in the presence of 50% human serum was determined by a cell viability assay using resazurin.
The last column lists the results for the wild-type strain IIB in the presence of 50% human serum MT-4 cells.

HIV-1 wild-type strain = assay: General antiviral assay, cell-based virus replication in MT4-LTR-EGFP cells, wild-type strain; details: wild-type strain IIIB, MT4-LTR-EGFP cells
Method: as §1, §2

mock-infected MT4 cells = assay: General toxicity assay on mock-infected MT4 cells with CMV-EGFP reporter (CC50); assay type: cell-based
[4] = mock-infected MT4 cells with CMV-EGFP reporter, read-out: TOX-MT4CMV (CC50)
[5] = MT4LTR cells, read-out: TOX-MT4LTR (CC50)

Row | Structure (SMILES) | EC50 [1] | EC50 [2] | EC50 [3] | EC50 (HIV-1 IIIB) | EC50 (HIV-1 wild-type strain) | CC50 (mock-infected MT4 cells; [4]) | CC50 (mock-infected MT4 cells; [5])
1 | COC(=O)N[C@H](C(=O)N[C@@H](Cc1ccc(-c2ccc(N(C)C)nc2)cc1)[C@@H](O)C[C@@H](Cc1cccc(OC)c1)C(=O)N[C@H]1c2cc(F)ccc2OC[C@H]1O)C(C)(C)C [Compound 26] | 3.4 nM | 3.2 nM | 4.2 nM | 15.4 nM | 5 nM | > 32 µM | 
2 | COC(=O)NC(C(=O)NC(Cc1ccc(-c2ccc(N(C)C)nc2)cc1)C(O)CC(Cc1cccc(Cl)c1)C(=O)NC1c2ccccc2OCC1O)C(C)(C)C (stereo not shown) [Compound 2] | 2.2 nM | 1.1 nM | 3.3 nM | 19.7 nM | 3 nM | > 32 µM | 
3 | COC(=O)NC(C(=O)NC(Cc1ccc(-c2ccc(N(C)C)nc2)cc1)C(O)CC(Cc1cccc(OC)c1)C(=O)NC1c2ccccc2OCC1O)C(C)(C)C (stereo not shown) [Compound 15] | 1.2 nM | 1.3 nM | 2.1 nM | 8.7 nM | 2 nM | > 32 µM | 
4 | COc1cccc(C[C@H](C[C@H](O)[C@H](Cc2ccc(-c3csc(N(C)C)n3)cc2)NC(=O)O[C@H]2CO[C@H]3OCC[C@H]32)C(=O)N[C@H]2c3cc(Cl)ccc3OC[C@H]2O)c1 [Compound 71] | 2.3 nM | 1 nM | 2.2 nM | 10.9 nM | 2.1 nM | > 32 µM | > 32 µM
5 | COC(=O)N[C@H](C(=O)N[C@@H](Cc1ccc(-c2ccc(OC)nc2)cc1)[C@@H](O)C[C@@H](Cc1cccc(F)c1)C(=O)N[C@H]1c2cc(Cl)ccc2OC[C@H]1O)C(C)(C)C [Compound 39] | 2.1 nM | 1.3 nM | 3.9 nM | 16.4 nM | 3 nM | > 32 µM | > 32 µM
6 | COC(=O)N[C@H](C(=O)N[C@@H](Cc1ccc(-c2cnc(C3CC3)s2)cc1)[C@@H](O)C[C@@H](Cc1ccccc1F)C(=O)N[C@H]1c2cc(Cl)ccc2OC[C@H]1O)C(C)(C)C [Compound 28] | 2.1 nM | 1.4 nM | 3.1 nM | 22.5 nM | 3.2 nM | > 32 µM | 
7 | COC(=O)N[C@H](C(=O)N[C@@H](Cc1ccc(-c2ccc(N(C)C)nc2)cc1)[C@@H](O)C[C@@H](Cc1cccc(F)c1)C(=O)N[C@H]1c2ccccc2OC[C@H]1O)C(C)(C)C [Compound 36] | 1.4 nM | 1.3 nM | 2.4 nM | 14.3 nM | 2.9 nM | > 32 µM | > 32 µM
8 | COC(=O)NC(C(=O)NC(Cc1ccc(-c2cnc(C)s2)cc1)C(O)CC(Cc1cccc(Cl)c1)C(=O)NC1c2cc(Cl)ccc2OCC1O)C(C)(C)C (stereo not shown) [Compound 6] | 2.7 nM | 1.5 nM | 3.9 nM | 15.2 nM | 3.2 nM | > 32 µM | 
9 | COC(=O)N[C@H](C(=O)N[C@@H](Cc1ccc(-c2ccc(N(C)C)nc2)cc1)[C@@H](O)C[C@@H](Cc1ccccc1F)C(=O)N[C@H]1c2cc(F)ccc2OC[C@H]1O)C(C)(C)C [Compound 33] | 1 nM | 0.9 nM | 1.5 nM | 9.8 nM | 2.5 nM | > 32 µM | 
10 | COC(=O)N[C@H](C(=O)N[C@@H](Cc1ccc(-c2ccc(N(C)C)nc2)cc1)[C@@H](O)C[C@@H](Cc1ccccc1F)C(=O)N[C@H]1c2cccc(F)c2OC[C@H]1O)C(C)(C)C [Compound 51] | 1.5 nM | 1.3 nM | 2.3 nM | 7 nM | 3 nM |  | > 32 µM
11 | COC(=O)N[C@H](C(=O)N[C@@H](Cc1ccc(-c2ccc(N(C)C)nc2)cc1)[C@@H](O)C[C@@H](Cc1ccccc1F)C(=O)N[C@H]1c2ccc(Cl)cc2OC[C@H]1O)C(C)(C)C [Compound 86] | 1.4 nM | 1.3 nM | 7.5 nM | 17.1 nM | 2.6 nM |  | > 32 µM
12 | COC(=O)N[C@H](C(=O)N[C@@H](Cc1ccc(-c2ccc(OC)nc2)cc1)[C@@H](O)C[C@@H](Cc1cccc(OC(F)(F)F)c1)C(=O)N[C@H]1c2ccccc2OC[C@H]1O)C(C)(C)C [Compound 41] | 1.2 nM | 1.1 nM | 2.4 nM | 10.5 nM | 3 nM | > 32 µM | > 32 µM
